Measurements taken from patent US20240173432A1, “Compositions and Methods for Treatment of Myotonic Dystrophy Type 1 with CRISPR/SluCas9” (Vertex Pharmaceuticals Incorporated, priority 2021, published 2024).

System: 3′ UTR of the human DMPK gene
Assay: Single-cut screening: indel editing efficiency by Sanger sequencing and ICE analysis in primary DM1 patient myoblasts
Type: cell-based
Conditions: vehicle-treated samples; for indel efficiency (Sanger sequencing and ICE analysis): single-cut, SluCas9 RNP, 72 hrs post nucleofection, wild-type allele; for Indel efficiency: single SluCas9 sgRNA RNP in primary DM1 patient myoblasts, Sanger sequencing and ICE analysis
Outline: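 Indels were estimated by ICE from Sanger chromatograms of PCR amplicons covering the DMPK 3′ UTR wild-type allele, using only vehicle-treated samples; sgRNAs with R2<0.9 are flagged. Samples came from primary DM1 patient myoblasts (2 × 10^5) harvested 72 h after nucleofection with 30 pmol SluCas9 and 90 pmol single sgRNA RNP.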

Substance	indel efficiency (Sanger sequencing and ICE analysis)	Indel efficiency [%]
ATGGGCAAACTGCAGGCCTGGG (listed as DNA, chemistry not fully specified) [SluD14]	high editing IN4DEL efficiency	–
GCCCCGTTGGAAGACTGAGTGC (listed as DNA, chemistry not fully specified) [SluU08]	high editing IN4DEL efficiency	87
gggcTCGAAGGGTCCTTGTAGC (as printed in the source, key not given here) [SluU64]	high editing IN4DEL efficiency	59
ggggcTCGAAGGGTCCTTGTAG (as printed in the source, key not given here) [SluU63]	high editing IN4DEL efficiency	–
